Experiments:
[1] = system: peripheral blood cells; test: filipin staining of peripheral blood cells measured by flow cytometry after inducing cholesterol dysregulation; assay type: cell-based; conditions: peripheral blood cells (PBCs) treated with the compound; FIG. 7
Text: In some embodiments, peripheral blood cells can be isolated and filipin levels measured by flow cytometry. This can allows for the cells to be isolated inexpensively and at minimal risk to the patient from simple venipuncture rather than requiring the invasive punch biopsy method for collection of fibroblasts as used and described in the results presented herein. A venipuncture can be performed with a venipuncture assembly including, for example, but not limited to, a plastic hub, a hydrodermic needle, a vacuum tube, a syringe, a butterfly needle, and/or other blood collection or vanipuncture devices known in the art. Accordingly, the ability to isolate peripheral blood cells and measure the filipin levels by flow cytometry can facilitate the commercialization of the testing procedure and techniques described herein for preventing and detecting disease. The isolation of peripheral blood cells and measuring of the filipin levels by flow cytometry was tested in two ways. […] Cholesterol dysregulation was induced by treating the cells with Ul 8666A, a compound that inhibits cholesterol synthesis and intracellular trafficking.

[2] = clinical trials, cited from earlier work; for mitigation of clinical AD progression: drugs aimed at preventing Aβ aggregates from forming into SPs

Compound | mitigation of clinical AD progression [2] | also measured
CCN(CC)CCO[C@H]1CC[C@@]2(C)C(=CC[C@@H]3[C@@H]2CC[C@]2(C)C(=O)CC[C@@H]32)C1 [U18666A] |  | effect on filipin staining (filipin fluorescence) [1]: dose-dependent effect
NCCCS(=O)(=O)O [homotaurine] | failed to mitigate clinical AD progression | 
O[C@H]1[C@H](O)[C@@H](O)[C@H](O)[C@@H](O)[C@@H]1O [scyllo-inositol] | failed to mitigate clinical AD progression | 
C[C@@H](C(=O)O)c1ccc(-c2ccccc2)c(F)c1 [tarenflurbil] |  | benefit to cognitive function ([2]; compounds targeting γ-secretase, even when reducing Aβ levels): no benefit to cognitive function
